{"source": "ChEMBL document CHEMBL1201862", "about": "“PubChem BioAssay data set” (2004)", "key": {"[1]": {"assay": "NIH-3T3 fibroblast cytotoxicity, dose response, cytotoxicity control, cell-based, fluorescence, Alamar Blue, secondary assay (AID 2327);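 also: NIH-3T3 mouse fibroblasts cultured with fluconazole at 8 µg/mL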", "type": "functional"}, "[2]": {"assay": "fluconazole-exposed Candida albicans growth modulators – fluorescence, retest, confirmation (AID 2467)", "type": "functional, cell-based"}, "[3]": {"target": "T1, Serine/threonine-protein phosphatase (Candida dubliniensis (strain CD36 / CBS 7987 / NCPF 3949 / NRRLY-17841) (Yeast), UniProt B9W6M3)", "T1 sequence (B9W6M3 whole entry)": "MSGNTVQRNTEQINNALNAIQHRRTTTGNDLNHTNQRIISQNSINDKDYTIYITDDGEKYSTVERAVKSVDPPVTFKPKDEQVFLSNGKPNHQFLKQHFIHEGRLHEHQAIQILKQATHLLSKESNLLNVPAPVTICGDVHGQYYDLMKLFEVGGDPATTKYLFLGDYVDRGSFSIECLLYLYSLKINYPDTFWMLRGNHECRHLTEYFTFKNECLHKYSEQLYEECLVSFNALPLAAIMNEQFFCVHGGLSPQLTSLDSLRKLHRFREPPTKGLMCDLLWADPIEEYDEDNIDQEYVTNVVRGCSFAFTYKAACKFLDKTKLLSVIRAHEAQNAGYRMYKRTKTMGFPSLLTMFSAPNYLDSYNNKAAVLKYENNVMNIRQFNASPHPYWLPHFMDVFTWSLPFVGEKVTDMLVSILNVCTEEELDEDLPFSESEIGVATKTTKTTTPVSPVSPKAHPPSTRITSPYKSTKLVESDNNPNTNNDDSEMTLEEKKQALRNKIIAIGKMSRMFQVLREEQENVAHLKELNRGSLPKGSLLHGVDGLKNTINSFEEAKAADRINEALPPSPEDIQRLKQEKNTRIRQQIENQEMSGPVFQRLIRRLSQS", "assay": "blockers of CaCl2-induced CDRE-lacZ signaling – S. cerevisiae, luminescence, secondary, dose response (AID 2388);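 also: yeast reporter cells carrying a calcineurin-responsive lacZ construct stimulated with calcium chloride; luminescent beta-galactosidase reporter signal in whole cells rather than isolated phosphatase activity; potency for inhibition where a drop in reporter signal means calcineurin blockade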", "type": "functional, cell-based"}, "[4]": {"target": "ATP-dependent molecular chaperone HSP82 (Candida albicans (strain WO-1) (Yeast), UniProt C4YTQ8)", "sequence (C4YTQ8 whole entry)": "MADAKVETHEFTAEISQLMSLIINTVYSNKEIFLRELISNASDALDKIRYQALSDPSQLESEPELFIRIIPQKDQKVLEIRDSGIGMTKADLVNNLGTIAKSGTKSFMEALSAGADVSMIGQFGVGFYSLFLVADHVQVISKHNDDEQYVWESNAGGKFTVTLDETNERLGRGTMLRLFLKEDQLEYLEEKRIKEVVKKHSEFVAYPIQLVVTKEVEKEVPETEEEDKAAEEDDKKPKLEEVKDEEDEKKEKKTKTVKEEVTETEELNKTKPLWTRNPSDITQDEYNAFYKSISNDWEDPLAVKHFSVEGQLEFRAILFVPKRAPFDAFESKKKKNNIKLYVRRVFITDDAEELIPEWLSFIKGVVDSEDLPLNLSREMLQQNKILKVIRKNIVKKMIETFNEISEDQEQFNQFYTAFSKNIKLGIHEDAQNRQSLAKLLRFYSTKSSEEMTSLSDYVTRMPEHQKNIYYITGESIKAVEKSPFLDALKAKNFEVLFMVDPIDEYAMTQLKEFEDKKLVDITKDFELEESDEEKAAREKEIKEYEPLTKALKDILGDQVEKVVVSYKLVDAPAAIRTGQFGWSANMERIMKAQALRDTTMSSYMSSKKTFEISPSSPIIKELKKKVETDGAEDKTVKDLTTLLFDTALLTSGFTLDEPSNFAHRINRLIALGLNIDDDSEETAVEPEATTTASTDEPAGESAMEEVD", "assay": "steroid-induced GRE reporter decrease in yeast – S. cerevisiae, luminescence, Hsp90 inhibitor project, dose response (AID 2400);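 also: beta-galactosidase luminescence from glucocorticoid response element reporter as proxy for Hsp90 function; inhibitor potency where signal loss means Hsp90 inhibition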", "type": "functional, cell-based"}, "cells [5]": {"assay": "cells", "type": "functional, cell-based"}, "[6]": {"target": "T2, Nuclear receptor subfamily 0 group B member 1 (Homo sapiens, UniProt P51843)", "T2 sequence (P51843 whole entry)": "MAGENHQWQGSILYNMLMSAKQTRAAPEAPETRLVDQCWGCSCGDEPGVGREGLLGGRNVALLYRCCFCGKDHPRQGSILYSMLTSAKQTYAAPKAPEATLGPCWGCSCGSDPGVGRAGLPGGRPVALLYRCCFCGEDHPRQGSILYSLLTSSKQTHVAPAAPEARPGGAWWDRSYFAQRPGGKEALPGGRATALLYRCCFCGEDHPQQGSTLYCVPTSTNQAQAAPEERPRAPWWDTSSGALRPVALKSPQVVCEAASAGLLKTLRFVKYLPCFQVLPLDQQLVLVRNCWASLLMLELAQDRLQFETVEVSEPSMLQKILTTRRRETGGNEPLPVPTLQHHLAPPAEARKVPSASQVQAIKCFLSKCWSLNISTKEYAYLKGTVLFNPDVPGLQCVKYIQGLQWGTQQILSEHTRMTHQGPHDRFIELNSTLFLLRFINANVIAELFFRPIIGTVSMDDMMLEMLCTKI", "type": "functional, cell-based"}, "H4": {"test_system": "H4", "assay": "Luminescence Cell-Based Dose Response HTS to Identify Activators of 5'UTR Stem-Loop Driven Prion Protein mRNA Translation in H4 Neuroglioblastoma Cells. [Related pubchem assays: 1829 (Project Summary), 1814 (Primary HTS)]", "type": "functional", "details": "Homo sapiens"}, "CHO-K1": {"test_system": "CHO-K1", "assay": "(§1) Counterscreen for antagonists of the orexin 1 receptor (OX1R; HCRTR1): Homogeneous time resolved fluorescence (HTRF)-based cell-based dose response assay to identify antagonists of the parental CHO-K1 cell line. [Related pubchem assays (depositor defined):AID434989, AID435008, AID463079, AID485270, AID492963, AID492964, AID492965, AID493232, AID504699, AID504701]", "type": "functional", "details": "Cricetulus griseus"}, "[7]": {"assay": "as §1, with “Fluorescence-based” for “Homogeneous time resolved fluorescence (HTRF)-based”, “cell-based high throughput” for “cell-based”, “CHO” for “CHO-K1”", "type": "functional"}, "[8]": {"target": "T3, Orexin/Hypocretin receptor type 1 (Homo sapiens, UniProt O43613)", "T3 sequence (O43613 whole entry)": "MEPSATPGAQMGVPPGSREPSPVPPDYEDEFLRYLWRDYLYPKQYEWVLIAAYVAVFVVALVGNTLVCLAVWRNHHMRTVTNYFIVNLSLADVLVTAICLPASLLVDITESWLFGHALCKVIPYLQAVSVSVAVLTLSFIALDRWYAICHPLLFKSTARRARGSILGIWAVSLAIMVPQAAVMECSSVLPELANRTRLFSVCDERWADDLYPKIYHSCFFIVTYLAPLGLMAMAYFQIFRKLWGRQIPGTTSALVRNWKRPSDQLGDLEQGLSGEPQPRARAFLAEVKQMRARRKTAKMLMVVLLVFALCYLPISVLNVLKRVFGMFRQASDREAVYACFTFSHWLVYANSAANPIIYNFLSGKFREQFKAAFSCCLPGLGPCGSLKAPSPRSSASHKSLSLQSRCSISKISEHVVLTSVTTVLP", "assay": "Homogeneous Time Resolved Fluorescence (HTRF)-based cell-based high throughput dose response assay for antagonists of the orexin 1 receptor (OX1R; HCRTR1). [Related pubchem assays (depositor defined):AID434989, AID435008, AID463079, AID485270, AID492963, AID492964, AID492965, AID493232, AID504717, AID504718]", "type": "functional"}, "[9]": {"target": "T3, Orexin/Hypocretin receptor type 1", "assay": "Fluorescence-based cell-based high throughput dose response assay for antagonists of the orexin 1 receptor (OX1R; HCRTR1). [Related pubchem assays (depositor defined):AID434989, AID435008, AID463079, AID485270, AID492963, AID492964, AID492965, AID493232, AID504717, AID504718]", "type": "functional"}, "Orexin receptor type 2 [10]": {"target": "T4, Orexin receptor type 2 (Homo sapiens, UniProt O43614)", "T4 sequence (O43614 whole entry)": "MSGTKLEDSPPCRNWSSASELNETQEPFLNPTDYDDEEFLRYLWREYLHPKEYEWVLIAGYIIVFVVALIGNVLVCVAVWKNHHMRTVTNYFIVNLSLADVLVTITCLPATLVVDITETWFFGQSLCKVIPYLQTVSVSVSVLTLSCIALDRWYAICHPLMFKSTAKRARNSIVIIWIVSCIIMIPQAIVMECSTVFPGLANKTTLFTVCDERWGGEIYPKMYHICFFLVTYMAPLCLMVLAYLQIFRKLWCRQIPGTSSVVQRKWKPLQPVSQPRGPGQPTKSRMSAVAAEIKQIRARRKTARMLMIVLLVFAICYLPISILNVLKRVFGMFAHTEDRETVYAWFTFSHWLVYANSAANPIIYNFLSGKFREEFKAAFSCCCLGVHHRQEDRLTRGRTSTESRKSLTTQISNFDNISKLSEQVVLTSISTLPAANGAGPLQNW", "assay": "Counterscreen assay for antagonists of the orexin 1 receptor (OX1R; HCRTR1): Fluorescence-based cell-based dose response assay for antagonists of the orexin 2 receptor (OX2R; HCRTR2), run by assay provider.", "type": "functional"}, "Orexin receptor type 2 [11]": {"target": "T4, Orexin receptor type 2", "assay": "Counterscreen assay for antagonists of the orexin 1 receptor (OX1R; HCRTR1): Homogeneous Time Resolved Fluorescence (HTRF)-based cell-based dose response assay for antagonists of the orexin 2 receptor (OX2R; HCRTR2), run by assay provider.", "type": "functional"}, "cells [12]": {"assay": "cells", "type": "functional"}}, "note": "The source made the active and inactive calls."}
{"smiles": "COc1ccc(C(=O)N2c3ccccc3C=CC2C#N)cc1", "note": "(stereo unspecified)", "values": [{"measurement": "EC50", "setting": "[1]", "result": "> 160 µM (inconclusive)"}, {"measurement": "EC50", "setting": "[2]", "result": "0.186 µM (active)"}, {"measurement": "EC50", "setting": "[3]", "result": "> 180 µM (inactive)"}, {"measurement": "EC50", "setting": "[4]", "result": "> 150 µM (inactive)"}]}
{"smiles": "CNc1nnc(SCC(=O)c2cc(C)n(C3CC3)c2C)s1", "values": [{"measurement": "IC50", "setting": "cells [5]", "result": "> 67.5 µM (inactive)"}, {"measurement": "IC50", "setting": "[6]", "result": "> 67.5 µM (inactive)"}]}
{"smiles": "Nc1nc(-c2sc3nc4c(cc3c2N)CCCC4)nc(N2CCOCC2)n1", "values": [{"measurement": "EC50", "setting": "H4", "result": "> 120 µM (not active)"}, {"measurement": "IC50", "setting": "CHO-K1", "result": "> 66.2 µM (inactive)"}, {"measurement": "IC50", "setting": "[7]", "result": "> 49.8 µM (inactive)"}, {"measurement": "IC50", "setting": "[8]", "result": "0.797 µM (active)"}, {"measurement": "IC50", "setting": "[9]", "result": "5.52 µM (active)"}, {"measurement": "IC50", "setting": "Orexin receptor type 2 [10]", "result": "> 88.8 µM (inactive)"}, {"measurement": "IC50", "setting": "Orexin receptor type 2 [11]", "result": "> 50 µM (inactive)"}]}
{"smiles": "Cc1cc(C(=O)NCc2cccc(Cl)c2)c2ccccc2n1", "values": [{"measurement": "IC50", "setting": "CHO-K1", "result": "> 66.2 µM (inactive)"}, {"measurement": "IC50", "setting": "[7]", "result": "> 49.7 µM (inactive)"}, {"measurement": "IC50", "setting": "[8]", "result": "0.976 µM (active)"}, {"measurement": "IC50", "setting": "[9]", "result": "12.6 µM (inactive)"}, {"measurement": "IC50", "setting": "Orexin receptor type 2 [10]", "result": "> 88.8 µM (inactive)"}, {"measurement": "IC50", "setting": "Orexin receptor type 2 [11]", "result": "7.59 µM (active)"}]}
{"smiles": "COc1ccccc1C(=O)Nc1nc2cc3c(cc2s1)OCCO3", "values": [{"measurement": "IC50", "setting": "CHO-K1", "result": "> 66.2 µM (inactive)"}, {"measurement": "IC50", "setting": "[7]", "result": "> 49.8 µM (inactive)"}, {"measurement": "IC50", "setting": "[8]", "result": "1.95 µM (active)"}, {"measurement": "IC50", "setting": "[9]", "result": "6.51 µM (active)"}, {"measurement": "IC50", "setting": "Orexin receptor type 2 [10]", "result": "> 88.8 µM (inactive)"}, {"measurement": "IC50", "setting": "Orexin receptor type 2 [11]", "result": "> 50 µM (inactive)"}]}
{"smiles": "CSC(=Nc1ccc(Br)cc1F)NS(=O)(=O)c1cccs1", "values": [{"measurement": "EC50", "setting": "[1]", "result": "> 150 µM (inactive)"}, {"measurement": "EC50", "setting": "[2]", "result": "0.239 µM (active)"}, {"measurement": "EC50", "setting": "[3]", "result": "> 180 µM (inactive)"}, {"measurement": "EC50", "setting": "[4]", "result": "18.6 µM (active)"}]}
{"smiles": "CCOC(=O)c1c(C)nc2c3ccccc3ccn12", "values": [{"measurement": "IC50", "setting": "CHO-K1", "result": "> 66.3 µM (inactive)"}, {"measurement": "IC50", "setting": "[7]", "result": "> 49.8 µM (inactive)"}, {"measurement": "IC50", "setting": "[8]", "result": "3.62 µM (active)"}, {"measurement": "IC50", "setting": "[9]", "result": "32.9 µM (inactive)"}, {"measurement": "IC50", "setting": "cells [12]", "result": "37.3 µM (active)"}, {"measurement": "IC50", "setting": "Orexin receptor type 2 [10]", "result": "> 88.8 µM (inactive)"}, {"measurement": "IC50", "setting": "Orexin receptor type 2 [11]", "result": "30 µM (inactive)"}]}
